According to ChEMBL document CHEMBL2439951, “Discovery of N-(benzo[1,2,3]triazol-1-yl)-N-(benzyl)acetamido)phenyl) carboxamides as severe acute respiratory syndrome coronavirus (SARS-CoV) 3CLpro inhibitors: identification of ML300 and noncovalent nanomolar inhibitors with an induced-fit binding” (Bioorg Med Chem Lett, 2013):

Legend:
Replicase polyprotein 1a = Replicase polyprotein 1a (Severe acute respiratory syndrome-related coronavirus, UniProt P0C6U8); experiment: Inhibition of SARS coronavirus 3CLpro
Cytochrome P450 2C9 = Cytochrome P450 2C9 (Homo sapiens, UniProt P11712); experiment: Inhibition of CYP2C9 (unknown origin); type: ADME
Cytochrome P450 1A2 = molecular target: T1, Cytochrome P450 1A2 (Homo sapiens, UniProt P05177); experiment: Inhibition of CYP1A2 (unknown origin); type: ADME
T1 sequence (P05177 whole entry): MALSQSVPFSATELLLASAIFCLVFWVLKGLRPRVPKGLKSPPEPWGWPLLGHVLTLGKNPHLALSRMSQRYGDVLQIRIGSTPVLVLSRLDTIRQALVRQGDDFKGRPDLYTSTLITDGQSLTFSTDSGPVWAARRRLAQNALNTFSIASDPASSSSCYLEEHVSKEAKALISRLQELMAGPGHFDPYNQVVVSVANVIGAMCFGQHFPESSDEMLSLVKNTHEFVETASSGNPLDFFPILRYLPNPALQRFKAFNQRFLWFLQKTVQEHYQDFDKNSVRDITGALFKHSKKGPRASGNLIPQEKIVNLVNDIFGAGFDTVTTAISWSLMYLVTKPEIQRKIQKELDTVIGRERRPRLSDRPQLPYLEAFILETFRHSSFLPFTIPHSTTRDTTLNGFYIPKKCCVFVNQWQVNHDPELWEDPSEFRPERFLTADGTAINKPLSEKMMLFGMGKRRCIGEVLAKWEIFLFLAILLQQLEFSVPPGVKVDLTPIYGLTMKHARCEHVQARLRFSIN

Cytochrome P450 2D6 = Cytochrome P450 2D6 (Homo sapiens, UniProt P10635); experiment: Inhibition of CYP2D6 (unknown origin); type: ADME
[1] = molecular target: Replicase polyprotein 1a (Severe acute respiratory syndrome-related coronavirus) (UniProt P0C6U8); experiment: Inhibition of SARS coronavirus 3CLpro at 100 uM
[2] = Inhibition of SARS coronavirus PLpro; parameters: species or system Severe acute respiratory syndrome-related coronavirus

Chain of Cytochrome P450 2C9 (P11712 whole entry): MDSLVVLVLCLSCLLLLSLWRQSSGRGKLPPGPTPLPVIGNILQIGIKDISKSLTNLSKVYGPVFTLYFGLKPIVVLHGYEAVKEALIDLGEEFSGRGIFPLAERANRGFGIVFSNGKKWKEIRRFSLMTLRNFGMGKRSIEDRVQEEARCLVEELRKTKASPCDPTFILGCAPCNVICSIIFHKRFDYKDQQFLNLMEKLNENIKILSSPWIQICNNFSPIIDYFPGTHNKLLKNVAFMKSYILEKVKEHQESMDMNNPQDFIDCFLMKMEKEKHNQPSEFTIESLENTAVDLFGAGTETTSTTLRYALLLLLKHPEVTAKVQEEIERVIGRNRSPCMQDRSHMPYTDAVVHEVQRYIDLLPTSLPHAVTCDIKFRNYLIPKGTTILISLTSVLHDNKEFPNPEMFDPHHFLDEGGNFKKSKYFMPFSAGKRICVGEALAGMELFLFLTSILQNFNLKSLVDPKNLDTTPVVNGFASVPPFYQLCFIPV
Chain of Cytochrome P450 2D6 (P10635 whole entry): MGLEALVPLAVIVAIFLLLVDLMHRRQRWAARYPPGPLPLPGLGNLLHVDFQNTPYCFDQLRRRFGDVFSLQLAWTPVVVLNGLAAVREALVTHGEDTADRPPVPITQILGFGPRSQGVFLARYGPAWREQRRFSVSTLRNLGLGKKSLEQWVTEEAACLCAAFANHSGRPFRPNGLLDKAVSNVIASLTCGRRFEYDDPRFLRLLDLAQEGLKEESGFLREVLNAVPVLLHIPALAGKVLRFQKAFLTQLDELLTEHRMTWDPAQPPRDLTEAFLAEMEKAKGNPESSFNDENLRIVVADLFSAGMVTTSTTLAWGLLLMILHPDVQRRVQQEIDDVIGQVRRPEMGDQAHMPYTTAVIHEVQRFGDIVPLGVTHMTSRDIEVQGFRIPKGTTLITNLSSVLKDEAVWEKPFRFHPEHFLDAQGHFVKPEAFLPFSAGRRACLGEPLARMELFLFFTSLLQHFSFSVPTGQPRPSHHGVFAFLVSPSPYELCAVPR

## O=C(Cn1nnc2ccccc21)N(Cc1ccsc1)c1ccc(-c2ccncc2)cc1
Replicase polyprotein 1a; read-out: IC50
  IC50: 2000 nM

## O=C(Nc1ccc(N(Cc2ccsc2)C(=O)Cn2nnc3ccccc32)cc1)C1CC1
Cytochrome P450 2C9
  INH: 7.2 µM
Cytochrome P450 1A2
  INH: 7.7 µM
Cytochrome P450 2D6
  INH: 8.4 µM

## COc1ncccc1-c1ccc(N(Cc2ccsc2)C(=O)Cn2nnc3ccccc32)cc1
Replicase polyprotein 1a; read-out: IC50
  IC50: 700 nM

## CC(C)COC(=O)Nc1ccc(N(C(=O)Cn2nnc3ccccc32)C(C(=O)NC(C)(C)C)c2ccsc2)cc1 (configuration not stated)
Replicase polyprotein 1a
  IC50: Not Active

## O=C(Nc1ccc(N(Cc2ccsc2)C(=O)Cn2nnc3ccccc32)cc1)c1ccccc1
[1]
  inhibition: 18%

## CC(C)(C)NC(=O)[C@@H](c1cccnc1)N(C(=O)c1ccco1)c1ccc(C(C)(C)C)cc1
Cytochrome P450 2C9
  INH: 9.1 µM
Cytochrome P450 1A2
  INH: > 30 µM
Cytochrome P450 2D6
  INH: > 30 µM

## CCC(C)(C)NC(=O)[C@@H](c1ccn(C)c1)N(C(=O)Cn1nnc2ccccc21)c1ccc(NC(C)=O)cc1
[2]
  IC50: > 60000 nM
Replicase polyprotein 1a; read-out: IC50
  IC50: 6200 nM
